Measurements reported in BindingDB's records for doi:10.7270/Q25D8QFV (Burnham Center For Chemical Genomics, 2012).

The compounds below were run against T1, Mitochondrial import inner membrane translocase subunit TIM23 (Saccharomyces cerevisiae (strain ATCC 204508 / S288c), UniProt P32897) (assay: analog potency on tim23-1 yeast growth – luminescence, S. cerevisiae, SAR follow-up (AID 602375)).
T1 sequence (P32897 whole entry): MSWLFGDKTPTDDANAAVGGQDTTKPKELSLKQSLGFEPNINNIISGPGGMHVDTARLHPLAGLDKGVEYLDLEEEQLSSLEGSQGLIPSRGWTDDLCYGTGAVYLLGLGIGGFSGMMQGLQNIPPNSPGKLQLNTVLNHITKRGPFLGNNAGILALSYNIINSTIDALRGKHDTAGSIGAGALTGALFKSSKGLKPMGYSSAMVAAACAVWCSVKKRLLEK
An IC50 of over 99 µM was found for CCOc1ccc2nc(-n3c(O)c[nH]c3=S)sc2c1 [3-(6-Ethoxy-benzothiazol-2-yl)-2-thioxo-imidazolidin-4-one] in this work. An IC50 of 44.3 µM was found for Cc1ccc(C2NN=C(c3ccc(Cl)cc3Cl)S2)cc1 (stereo not given) [MLS-0463404.0001] in this work. An IC50 of over 99 µM was found for Cc1c2c(n(Cc3ccco3)c1C)N=CN1C=CS(=O)(=O)NC21 (stereo not given) [8-(furan-2-ylmethyl)-9,10-dimethyl-3,4-dihydropyrrolo[1,2]pyrimido[3,5-b][1,2,4]thiadiazine 2,2-dioxide] in this work. An IC50 of 50.3 µM was found for Cc1ccc2nc(-n3c(O)c[nH]c3=S)sc2c1 in this work. An IC50 of 11.2 µM was found for C(=CN=Nc1nc2ccccc2[nH]1)Cc1ccccc1 [MLS000390936] in this work.
